{"source": "patent US20240174659A1", "about": "“COMPOUNDS AND METHODS FOR YAP/TEAD MODULATION AND INDICATIONS THEREFOR” (Opna Bio SA, priority 2021, published 2024)", "note": "Where a name gives a salt, the structure may show the parent alone.", "data": [{"test_system": "TEAD-dependent transcription", "assay": "Inhibitor activity against TEAD-dependent transcription in a cell-based reporter assay (MSTO-211H+12XGTIIC luciferase)", "details": "Homo sapiens; MSTO-211H+12XGTIIC cells, 24 hours incubation, luciferase luminescence normalized to cell viability fluorescence, geometric mean; read-out: MSTO-211H GMean IC50 (uM) Cell Assay Reporter Cell Variant: TEAD", "from_the_text": "Determine Inhibitor Activity Against TEAD-Dependent Transcription in a Cell-Based Reporter Assay\nThe human mesothelioma cell line MSTO-211H was stably transfected with a pGL4.21 plasmid containing a synthetic promoter with 12 copies of the GTIIC TEAD response element that drives the expression of a luciferase reporter gene^1 using Lipofectamine transfection reagent (Thermo Fisher). Transfected cells were selected using puromycin and single cell clones expressing this construct (referred to as MSTO-211H+12XGTIIC) were generated by limiting dilution. MSTO-211H cells was characterized by genetic alterations in key components of the Hippo pathway^2, resulting in up-regulation of YAP/TEAD-mediated transcription. […] To evaluate TEAD inhibitors, the MSTO-211H+12XGTIIC cell line was seeded in a 96-well plate in 50 μL of culture media at 1×10^4 cells per well and incubated at 37° C. overnight. Serial dilutions of compounds (in total volume of 50 μL of culture media) were added to the cells and incubated at 37° C. for 24 hours. Each plate included cells treated with DMSO as high controls and cells treated with 20 μM of the reference compound K-975 (a known TEAD inhibitor)^3 as low controls. Cell viability was assayed by the addition of 25 μL of CellTiter-Fluor reagent (Promega) followed by a 30-minute incubation at 37° C. and quantification of the fluorescence signal (Ex400/Em505). Subsequently, luciferase expression was assayed by the addition of 25 μL of ONE-Glo reagent (Promega) followed by a 10-minute incubation at room temperature and quantification of the luminescence signal. The luminescence signal was normalized to the fluorescence signal to correct for any loss in cell viability over the 24-hour compound incubation period. The percentage of inhibition of normalized luminescence signal, indicative of compound-mediated inhibition of TEAD-dependent transcription, at individual compound concentrations relative to high and low controls was calculated. The data were analyzed by using nonlinear regression to generate IC50 values for individual compounds.", "units": {"IC50": "µM"}, "values": [{"smiles": "C=CC(=O)N1CCc2ccc(Oc3ccccn3)cc2C1", "note": "[P-0059, 1-(7-(pyridin-2-yloxy)-3,4-dihydroisoquinolin-2(1H)-yl)prop-2-en-1-one]", "IC50": "> 20"}, {"smiles": "C=CC(=O)N1CCc2ccc(Oc3ccnc(C(F)(F)F)c3)cc2C1", "note": "[P-0060, 1-(7-((2-(trifluoromethyl)pyridin-4-yl)oxy)-3,4-dihydroisoquinolin-2(1H)-yl)prop-2-en-1-one]", "IC50": "0.001 to 0.5"}, {"smiles": "C=CC(=O)N1CCc2ccc(OC3CCCCC3)cc2C1", "note": "[P-0061, 1-(7-(cyclohexyloxy)-3,4-dihydroisoquinolin-2(1H)-yl)prop-2-en-1-one]", "IC50": "0.001 to 0.5"}, {"smiles": "C=CC(=O)N1CCc2ccc(OC3CCC(F)(F)CC3)cc2C1", "note": "[P-0062, 1-(7-((4,4-difluorocyclohexyl)oxy)-3,4-dihydroisoquinolin-2(1H)-yl)prop-2-en-1-one]", "IC50": "0.001 to 0.5"}, {"smiles": "C=CC(=O)N1CCc2ccc(Oc3ccccc3F)cc2C1", "note": "[P-0063, 1-(7-(2-fluorophenoxy)-3,4-dihydroisoquinolin-2(1H)-yl)prop-2-en-1-one]", "IC50": "0.001 to 0.5"}, {"smiles": "C=CC(=O)N1CCc2ccc(OC3CCC4(CCCC4)CC3)cc2C1", "note": "[P-0064, 1-(7-(spiro[4.5]decan-8-yloxy)-3,4-dihydroisoquinolin-2(1H)-yl)prop-2-en-1-one]", "IC50": "0.5 to 20"}, {"smiles": "C=CC(=O)N1CCc2ccc(N[C@H]3CC[C@@H](C(F)(F)F)CC3)cc2C1", "note": "[P-0065, 1-(7-(((1s,4s)-4-(trifluoromethyl)cyclohexyl)ami-no)-3,4-dihydroisoquinolin-2(1H)-yl)prop-2-en-1-one formate]", "IC50": "0.001 to 0.5"}, {"smiles": "C=CC(=O)N1CCc2ccc(NC3CCCC3)cc2C1", "note": "[P-0066, 1-(7-(cyclopentylamino)-3,4-dihydroisoquinolin-2(1H)-yl)prop-2-en-1-one]", "IC50": "0.001 to 0.5"}, {"smiles": "C=CC(=O)N1CCc2ccc(Cc3ccc(F)c(C(F)(F)F)c3)cc2C1", "note": "[P-0067, 1-(7-(4-fluoro-3-(trifluoromethyl)benzyl)-3,4-dihydroisoquinolin-2(1H)-yl)prop-2-en-1-one]", "IC50": "0.001 to 0.5"}, {"smiles": "C=CC(=O)N1CCc2ccc(Cc3ccc(C(F)(F)F)c(F)c3)cc2C1", "note": "[P-0068, 1-(7-(3-fluoro-4-(trifluoromethyl)benzyl)-3,4-dihydroisoquinolin-2(1H)-yl)prop-2-en-1-one]", "IC50": "0.001 to 0.5"}, {"smiles": "C=CC(=O)N1CCc2ccc(Oc3cccc(C(F)(F)F)n3)cc2C1", "note": "[P-0069, 1-(7-((6-(trifluoromethyl)pyridin-2-yl)oxy)-3,4-dihydroisoquinolin-2(1H)-yl)prop-2-en-1-one]", "IC50": "0.5 to 20"}, {"smiles": "C=CC(=O)N1CCc2ccc(OC3CCCCCC3)cc2C1", "note": "[P-0070, 1-(7-(cycloheptyloxy)-3,4-dihydroisoquinolin-2(1H)-yl)prop-2-en-1-one]", "IC50": "0.001 to 0.5"}, {"smiles": "C=CC(=O)N1CCc2ccc(OC3CCC(C(F)(F)F)CC3)cc2C1", "note": "(stereo not drawn) [P-0071, 1-(7-((4-(trifluoromethyl)cyclohexyl)oxy)-3,4-dihydroisoquinolin-2(1H)-yl)prop-2-en-1-one]", "IC50": "0.001 to 0.5"}, {"smiles": "C=CC(=O)N1CCc2ccc(Cc3ccc(C(F)(F)F)cc3)cc2C1", "note": "[P-0072, 1-(7-(4-(trifluoromethyl)benzyl)-3,4-dihydroisoquinolin-2(1H)-yl)prop-2-en-1-one]", "IC50": "0.001 to 0.5"}, {"smiles": "C=CC(=O)N1CCc2ccc(Oc3ccc(Cl)c(F)c3)cc2C1", "note": "[P-0073, 1-(7-(4-chloro-3-fluorophenoxy)-3,4-dihydroisoquinolin-2(1H)-yl)prop-2-en-1-one]", "IC50": "0.001 to 0.5"}, {"smiles": "C=CC(=O)N1CCc2ccc(OC3CC4(CCC4)C3)cc2C1", "note": "[P-0074, 1-(7-(spiro[3.3]heptan-2-yloxy)-3,4-dihydroisoquinolin-2(1H)-yl)prop-2-en-1-one]", "IC50": "0.001 to 0.5"}, {"smiles": "C=CC(=O)N1CCc2ccc(O[C@H]3C[C@@H]4[C@H](C3)C4(F)F)cc2C1", "note": "[P-0075, 1-(7-(((1R,3r,5S)-6,6-difluorobicyclo[3.1.0]hexan-3-yl)oxy)-3,4-dihydroisoquinolin-2(1H)-yl)prop-2-en-1-one]", "IC50": "0.001 to 0.5"}, {"smiles": "C=CC(=O)N1CCc2ccc(OC3CC4CCC3C4)cc2C1", "note": "(stereo not drawn) [P-0076, 1-(7-(bicyclo[2.2.1]heptan-2-yloxy)-3,4-dihydroisoquinolin-2(1H)-yl)prop-2-en-1-one]", "IC50": "0.001 to 0.5"}]}]}
